Patent US20240116926A1, “HETEROAROMATIC COMPOUNDS” (AstraZeneca AB, priority 2022, published 2024)
Converted amounts (≈) assume the structure as drawn.

What was measured:
[1] = test system: MCF7-Luciferase cell line; assay: Control reporter (MCF7-Luciferase); format: cell-based; conditions: MCF7-Luciferase cells, luciferase activity after 24 hours
[2] = Solubility (thermodynamic, shake-flask); format: physicochemical; conditions: thermodynamic from solid; aqueous phosphate buffer (pH 7.4), 24 hours at 25° C.
Outline: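 Shake-flask method starting from 10 mM DMSO stocks, which are dried before use. Residue equilibrated 24 h at 25° C. in aqueous phosphate buffer, pH 7.4. Dissolved fraction separated and quantified by UPLC/MS/MS, with QC samples in each run.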

[3] = Protein binding measurements in human plasma (Hu PPB); format: in vitro ADME; conditions: equilibrium dialysis for 18 hours, fraction unbound
Protocol: The automated equilibrium dialysis assay in human plasma uses the RED (Rapid Equilibrium Dialysis) Device and sample handling. The assay generally runs over two to three days including delivery of results. After dialysis for 18 hours, plasma and buffer samples are prepared for analysis by liquid chromatography and mass spectrometry. Samples are generally tested in singlicates and quantified by LC/MSMS by using a 7-point calibration curve in plasma. The compounds are pooled together in plasma pools up to 10 compounds. Three reference compounds are used in each run, Propranolol, Metoprolol and Warfarin. Warfarin is used as a control in each pool and Propranolol and Metoprolol are placed randomly in each run. An in-house Excel macro is used for preparation of files for the robot and the mass spectrometer and is also used for the calculations of fraction unbound (fu %) in plasma.

[4] = biological target: TEAD4(217-434) (Homo sapiens (Human), UniProt Q15561); assay: TEAD4 FRET; format: binding; conditions: depalmitoylated, biotinylated TEAD4(217-434), FAM labelled Probe A, 120 min at 25° C.
[5] = test system: MCF7-Tead cell line; assay: TEAD reporter assay; format: cell-based; conditions: MCF7-Tead cells, luciferase activity after 24 hours

Sequence of TEAD4(217-434) (Q15561 217-434): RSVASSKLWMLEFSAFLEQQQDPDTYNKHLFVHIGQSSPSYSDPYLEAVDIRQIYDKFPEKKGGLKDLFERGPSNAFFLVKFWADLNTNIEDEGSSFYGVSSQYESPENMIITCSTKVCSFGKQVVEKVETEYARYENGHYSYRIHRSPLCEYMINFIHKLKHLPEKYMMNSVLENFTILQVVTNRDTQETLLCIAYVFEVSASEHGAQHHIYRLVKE

IC50 [1] | solubility at 24 h [2] | Hu PPB (% free) [3] | IC50 [4] | IC50 [5] | Compound
22.7 µM | 66 µM (≈ 26.2 µg/mL) | 1.1 % free | 55 nM | 260 nM | C=CC(=O)N1CC[C@@H](c2nc(-c3ccc(C(F)(F)F)cc3)c3ccccc3n2)C1 (racemic) [Comparative Example C, 1-(3-{4-[4-(trifluoromethyl)phenyl]-2-quinazolinyl}-1-pyrrolidinyl)-2-propen-1-one, reference compound]
> 31.7 µM | 165 µM (≈ 72.9 µg/mL) | 9.8 % free | 59 nM | 57 nM | C=CC(=O)N1C[C@H](CO)[C@H](Nc2nnc(-c3ccc(C(F)(F)F)cc3)c3ccccc23)C1 [Example 49, 1-((3S,4S)-3-(hydroxymethyl)-4-((4-(4-(trifluoromethyl)phenyl)phthalazin-1-yl)amino)pyrrolidin-1-yl)prop-2-en-1-one]
> 31.7 µM | 32 µM (≈ 13.2 µg/mL) | 12.0 % free | 56 nM | 72 nM | C=CC(=O)N1CC[C@H](Nc2nnc(-c3ccc(C(F)(F)F)cc3)c3cccnc23)C1 [Example 8, (S)-1-(3-((5-(4-(trifluoromethyl)phenyl)pyrido[2,3-d]pyridazin-8-yl)amino)pyrrolidin-1-yl)prop-2-en-1-one]
> 31.7 µM | 40 µM (≈ 17.2 µg/mL) | 6.1 % free | 41 nM | 30 nM | C=CC(=O)N1CC[C@H](Nc2nnc(-c3ccc(C(F)(F)F)cc3)c3cccc(F)c23)C1 [Example 13, (S)-1-(3-((8-fluoro-4-(4-(trifluoromethyl)phenyl)phthalazin-1-yl)amino)pyrrolidin-1-yl)prop-2-en-1-one]
